Results: patent US8715672B2, “Treatment of diseases linked to pathological kinin formation” (CSL Behring GmbH, priority 2004, dated 2014)

Experiments:
[1] = tested on: intrinsic coagulation pathway; experiment: aPTT of wildtype mice after infusion of corn trypsin inhibitor; assay type: in vivo, mouse; details: CTI 50 μg/g body weight, n=4
Experimental: (§1) Alternatively, to test the impact of small molecule FXII inhibitors, wildtype mice were infused with the FXII inhibitor corn trypsin inhibitor (CTI, 50 μg/g body weight) 5 min prior to FeCl3-induced injury in the carotic artery (Wang et al. (2005) J. Thromb. Heamost. 3: 695-702). […] In none of the animals tested (0/4) vessel occluding thrombi developed within 30 min following application of FeCl3.
Global and single coagulation parameters were determined with an automated blood coagulation system (BCS, Dade Behring) with Dade Behring reagents according to the protocols for human samples detailed by the manufacturer. Principles of BCS assay protocols are available from Dade Behring package inserts, which can be found on Dade Behring's web site (http://www.dadebehring.com). D-dimers werde measured with the ELISA from Asserachrorn (Roche). Peripheral blood counts were determines on the Sysmex XE 2100 according to standard protocols.

wildtype mice = experiment: FeCl3-induced injury in the carotid artery after infusion of corn trypsin inhibitor; assay type: in vivo, mouse
Experimental: as §1

corn trypsin inhibitor [CTI]
aPTT [1]: 62 ± 11 s | animals developing vessel occluding thrombi within 30 min following application of FeCl3 (wildtype mice; CTI 50 μg/g 5 min prior to injury, carotid artery): 0/4 | bleeding during the surgical procedure (wildtype mice; CTI 50 μg/g body weight): did not affect bleeding
